{"source": "patent US8802597B2", "about": "“Herbicidal pyrimidines” (E I du Pont de Nemours and Company, priority 2003, dated 2014)", "assay_in_all_cases": "Test C pre/postemergence", "format_in_all_cases": "in vivo", "key": {"soybean (Glycine max)": {"test_system": "soybean (Glycine max)", "conditions": "Glycine max; for plant injury at 31 g/ha: 31 g ai/ha; for plant injury at 62 g/ha: 62 g ai/ha; for plant injury at 125 g/ha: 125 g ai/ha; for plant injury at 250 g/ha: 250 g ai/ha", "method_in_brief": "(§1)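 Visual injury ratings, 0 (no effect) to 100 (complete control), made 12 to 14 days after treatment by comparison with untreated controls. Greenhouse plants received test chemical in a surfactant-containing non-phytotoxic solvent, either preemergence on planted seeds or postemergence at the 1- to 4-leaf stage.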"}, "[1]": {"test_system": "eastern black nightshade (Solanum ptycanthum)", "conditions": "Solanum, pre-emergence, Preemergence, read-out: Plant response rating, Nightshade", "method_in_brief": "as §1"}, "[2]": {"test_system": "common (oilseed) sunflower (Helianthus annuus)", "conditions": "Helianthus annuus, pre-emergence, Preemergence, read-out: Plant response rating, Sunflower", "method_in_brief": "as §1"}, "[3]": {"test_system": "crabgrass (Digitaria sanguinalis)", "conditions": "Digitaria sanguinalis; for pest or weed control at 31 g/ha: 31 g ai/ha; for pest or weed control at 62 g/ha: 62 g ai/ha; for pest or weed control at 125 g/ha: 125 g ai/ha; for pest or weed control at 250 g/ha: 250 g ai/ha", "method_in_brief": "as §1"}, "kochia (Kochia scoparia)": {"test_system": "kochia (Kochia scoparia)", "conditions": "Bassia scoparia; for pest or weed control at 31 g/ha: 31 g ai/ha; for pest or weed control at 62 g/ha: 62 g ai/ha; for pest or weed control at 125 g/ha: 125 g ai/ha; for pest or weed control at 250 g/ha: 250 g ai/ha", "method_in_brief": "as §1"}, "corn (Zea mays)": {"test_system": "corn (Zea mays)", "conditions": "Zea mays; for Corn plant response rating (crop injury, 0 = no effect, 100 = complete kill) at 31 g/ha: 31 g ai/ha; for Corn plant response rating (crop injury, 0 = no effect, 100 = complete kill) at 62 g/ha: 62 g ai/ha; for Corn plant response rating (crop injury, 0 = no effect, 100 = complete kill) at 125 g/ha: 125 g ai/ha; for Corn plant response rating (crop injury, 0 = no effect, 100 = complete kill) at 250 g/ha: 250 g ai/ha", "method_in_brief": "as §1"}, "[4]": {"test_system": "morningglory (Ipomoea coccinea)", "conditions": "Ipomoea, post-emergence, Postemergence", "method_in_brief": "as §1"}, "[5]": {"conditions": "post-emergence, Postemergence, scale 0 to 100 (0 no effect, 100 complete control), read-out: Soybean plant response rating"}, "[6]": {"conditions": "pre-emergence, Preemergence, scale 0 to 100, 0 no effect, 100 complete control, read-out: Plant response rating, Soybean"}, "[7]": {"conditions": "pre-emergence, Preemergence, scale 0 to 100, read-out: Plant response rating, Soybean"}, "[8]": {"conditions": "31 g ai/ha, scale 0 to 100, 0 no effect, 100 complete control"}, "[9]": {"conditions": "62 g ai/ha, scale 0 to 100, 0 no effect, 100 complete control"}, "[10]": {"conditions": "post-emergence, Postemergence, scale 0 to 100 (0 no effect, 100 complete control), read-out: Crabgrass plant response rating"}, "[11]": {"conditions": "pre-emergence, Preemergence, scale 0 to 100, 0 no effect, 100 complete control, read-out: Plant response rating, Crabgrass"}, "[12]": {"conditions": "pre-emergence, Preemergence, scale 0 to 100, read-out: Plant response rating, Crabgrass"}, "[13]": {"conditions": "post-emergence, Postemergence, scale 0 to 100 (0 no effect, 100 complete control), read-out: Kochia plant response rating"}, "[14]": {"conditions": "pre-emergence, Preemergence, scale 0 to 100, 0 no effect, 100 complete control, read-out: Plant response rating, Kochia"}, "[15]": {"conditions": "pre-emergence, Preemergence, scale 0 to 100, read-out: Plant response rating, Kochia"}, "[16]": {"conditions": "post-emergence, Postemergence, scale 0 to 100 (0 no effect, 100 complete control), read-out: Corn plant response rating"}, "[17]": {"conditions": "pre-emergence, Preemergence, scale 0 to 100, 0 no effect, 100 complete control, read-out: Plant response rating, Corn"}}, "note": "Where two headings read alike, the source gives them in different places.", "data": [{"smiles": "COC(=O)c1nc(C(C)C)nc(N)c1Br", "note": "[Compound 3]", "values": [{"measurement": "plant injury at 31 g/ha", "setting": "soybean (Glycine max); post-emergence, Postemergence, read-out: Plant response rating (scale of 0 to 100), Soybean", "result": 60, "unit": "%"}, {"measurement": "plant injury at 62 g/ha", "setting": "soybean (Glycine max); [5]", "result": 75, "unit": "%"}, {"measurement": "plant injury at 125 g/ha", "setting": "soybean (Glycine max); [5]", "result": 90, "unit": "%"}, {"measurement": "plant injury at 250 g/ha", "setting": "soybean (Glycine max); post-emergence, Postemergence, scale 0 to 100, read-out: Plant response rating, Soybean", "result": 95, "unit": "%"}, {"measurement": "plant injury at 31 g/ha", "setting": "soybean (Glycine max); [6]", "result": 0, "unit": "%"}, {"measurement": "plant injury at 62 g/ha", "setting": "soybean (Glycine max); [6]", "result": 0, "unit": "%"}, {"measurement": "plant injury at 125 g/ha", "setting": "soybean (Glycine max); [7]", "result": 15, "unit": "%"}, {"measurement": "plant injury at 250 g/ha", "setting": "soybean (Glycine max); [7]", "result": 20, "unit": "%"}, {"measurement": "pest or weed control at 31 g/ha", "setting": "[1]; [8]", "result": 0, "unit": "%"}, {"measurement": "pest or weed control at 62 g/ha", "setting": "[1]; [9]", "result": 0, "unit": "%"}, {"measurement": "pest or weed control at 125 g/ha", "setting": "[1]; 125 g ai/ha, scale 0 to 100", "result": 0, "unit": "%"}, {"measurement": "pest or weed control at 250 g/ha", "setting": "[1]; 250 g ai/ha, scale 0 to 100", "result": 20, "unit": "%"}, {"measurement": "pest or weed control at 31 g/ha", "setting": "[2]; [8]", "result": 0, "unit": "%"}, {"measurement": "pest or weed control at 62 g/ha", "setting": "[2]; [9]", "result": 0, "unit": "%"}, {"measurement": "pest or weed control at 125 g/ha", "setting": "[2]; 125 g ai/ha, scale 0 to 100", "result": 0, "unit": "%"}, {"measurement": "pest or weed control at 250 g/ha", "setting": "[2]; 250 g ai/ha, scale 0 to 100", "result": 0, "unit": "%"}, {"measurement": "pest or weed control at 31 g/ha", "setting": "[3]; post-emergence, Postemergence, read-out: Plant response rating (scale of 0 to 100), Crabgrass", "result": 0, "unit": "%"}, {"measurement": "pest or weed control at 62 g/ha", "setting": "[3]; [10]", "result": 0, "unit": "%"}, {"measurement": "pest or weed control at 125 g/ha", "setting": "[3]; [10]", "result": 0, "unit": "%"}, {"measurement": "pest or weed control at 250 g/ha", "setting": "[3]; post-emergence, Postemergence, scale 0 to 100, read-out: Plant response rating, Crabgrass", "result": 0, "unit": "%"}, {"measurement": "pest or weed control at 31 g/ha", "setting": "[3]; [11]", "result": 0, "unit": "%"}, {"measurement": "pest or weed control at 62 g/ha", "setting": "[3]; [11]", "result": 0, "unit": "%"}, {"measurement": "pest or weed control at 125 g/ha", "setting": "[3]; [12]", "result": 0, "unit": "%"}, {"measurement": "pest or weed control at 250 g/ha", "setting": "[3]; [12]", "result": 0, "unit": "%"}, {"measurement": "pest or weed control at 31 g/ha", "setting": "kochia (Kochia scoparia); post-emergence, Postemergence, read-out: Plant response rating (scale of 0 to 100), Kochia", "result": 20, "unit": "%"}, {"measurement": "pest or weed control at 62 g/ha", "setting": "kochia (Kochia scoparia); [13]", "result": 65, "unit": "%"}, {"measurement": "pest or weed control at 125 g/ha", "setting": "kochia (Kochia scoparia); [13]", "result": 90, "unit": "%"}, {"measurement": "pest or weed control at 250 g/ha", "setting": "kochia (Kochia scoparia); post-emergence, Postemergence, scale 0 to 100, read-out: Plant response rating, Kochia", "result": 100, "unit": "%"}, {"measurement": "pest or weed control at 31 g/ha", "setting": "kochia (Kochia scoparia); [14]", "result": 0, "unit": "%"}, {"measurement": "pest or weed control at 62 g/ha", "setting": "kochia (Kochia scoparia); [14]", "result": 0, "unit": "%"}, {"measurement": "pest or weed control at 125 g/ha", "setting": "kochia (Kochia scoparia); [15]", "result": 20, "unit": "%"}, {"measurement": "pest or weed control at 250 g/ha", "setting": "kochia (Kochia scoparia); [15]", "result": 30, "unit": "%"}, {"measurement": "Corn plant response rating (crop injury, 0 = no effect, 100 = complete kill) at 31 g/ha", "setting": "corn (Zea mays); post-emergence, Postemergence, read-out: Plant response rating (scale of 0 to 100), Corn", "result": 0, "unit": "%"}, {"measurement": "Corn plant response rating (crop injury, 0 = no effect, 100 = complete kill) at 62 g/ha", "setting": "corn (Zea mays); [16]", "result": 0, "unit": "%"}, {"measurement": "Corn plant response rating (crop injury, 0 = no effect, 100 = complete kill) at 125 g/ha", "setting": "corn (Zea mays); [16]", "result": 0, "unit": "%"}, {"measurement": "Corn plant response rating (crop injury, 0 = no effect, 100 = complete kill) at 250 g/ha", "setting": "corn (Zea mays); post-emergence, Postemergence, scale 0 to 100", "result": 0, "unit": "%"}, {"measurement": "Corn plant response rating (crop injury, 0 = no effect, 100 = complete kill) at 31 g/ha", "setting": "corn (Zea mays); [17]", "result": 0, "unit": "%"}, {"measurement": "Corn plant response rating (crop injury, 0 = no effect, 100 = complete kill) at 62 g/ha", "setting": "corn (Zea mays); [17]", "result": 0, "unit": "%"}, {"measurement": "Corn plant response rating (crop injury, 0 = no effect, 100 = complete kill) at 125 g/ha", "setting": "corn (Zea mays); pre-emergence, Preemergence, scale 0 to 100, read-out: Plant response rating, Corn", "result": 0, "unit": "%"}, {"measurement": "Corn plant response rating (crop injury, 0 = no effect, 100 = complete kill) at 250 g/ha", "setting": "corn (Zea mays); pre-emergence, Preemergence, scale 0 to 100", "result": 0, "unit": "%"}, {"measurement": "pest or weed control at 31 g/ha", "setting": "[4]; 31 g ai/ha, read-out: Plant response rating (scale of 0 to 100), Morningglory", "result": 45, "unit": "%"}, {"measurement": "pest or weed control at 62 g/ha", "setting": "[4]; 62 g ai/ha, scale 0 to 100 (0 no effect, 100 complete control), read-out: Morningglory plant response rating", "result": 60, "unit": "%"}, {"measurement": "pest or weed control at 125 g/ha", "setting": "[4]; 125 g ai/ha, scale 0 to 100 (0 no effect, 100 complete control), read-out: Morningglory plant response rating", "result": 65, "unit": "%"}, {"measurement": "pest or weed control at 250 g/ha", "setting": "[4]; 250 g ai/ha, scale 0 to 100, read-out: Plant response rating, Morningglory", "result": 75, "unit": "%"}]}]}
